Measurements from article PMC4474691, “Leukemia-Associated Mutations in Nucleophosmin Alter Recognition by CRM1: Molecular Basis of Aberrant Transport” (PLoS ONE, 2015).
Blank lines part the entries; values can stand above or below the substance they belong to.

Tests used:
CRM1^HA [1] = biological target: T1, CRM1^HA (Mus musculus, UniProt Q6P5F9, L431A/V430A/V432A); assay: Fluorescence anisotropy binding assay, CRM1^HA; settings: 0–60 μM CRM1^HA, 25°C
T1 construct: His-ZZ (cleaved yes); made in house; host or cells: Escherichia coli BL21-CodonPlus (DE3)
T1 sequence (Q6P5F9 1-1062 V430A/L431A/V432A limits assumed): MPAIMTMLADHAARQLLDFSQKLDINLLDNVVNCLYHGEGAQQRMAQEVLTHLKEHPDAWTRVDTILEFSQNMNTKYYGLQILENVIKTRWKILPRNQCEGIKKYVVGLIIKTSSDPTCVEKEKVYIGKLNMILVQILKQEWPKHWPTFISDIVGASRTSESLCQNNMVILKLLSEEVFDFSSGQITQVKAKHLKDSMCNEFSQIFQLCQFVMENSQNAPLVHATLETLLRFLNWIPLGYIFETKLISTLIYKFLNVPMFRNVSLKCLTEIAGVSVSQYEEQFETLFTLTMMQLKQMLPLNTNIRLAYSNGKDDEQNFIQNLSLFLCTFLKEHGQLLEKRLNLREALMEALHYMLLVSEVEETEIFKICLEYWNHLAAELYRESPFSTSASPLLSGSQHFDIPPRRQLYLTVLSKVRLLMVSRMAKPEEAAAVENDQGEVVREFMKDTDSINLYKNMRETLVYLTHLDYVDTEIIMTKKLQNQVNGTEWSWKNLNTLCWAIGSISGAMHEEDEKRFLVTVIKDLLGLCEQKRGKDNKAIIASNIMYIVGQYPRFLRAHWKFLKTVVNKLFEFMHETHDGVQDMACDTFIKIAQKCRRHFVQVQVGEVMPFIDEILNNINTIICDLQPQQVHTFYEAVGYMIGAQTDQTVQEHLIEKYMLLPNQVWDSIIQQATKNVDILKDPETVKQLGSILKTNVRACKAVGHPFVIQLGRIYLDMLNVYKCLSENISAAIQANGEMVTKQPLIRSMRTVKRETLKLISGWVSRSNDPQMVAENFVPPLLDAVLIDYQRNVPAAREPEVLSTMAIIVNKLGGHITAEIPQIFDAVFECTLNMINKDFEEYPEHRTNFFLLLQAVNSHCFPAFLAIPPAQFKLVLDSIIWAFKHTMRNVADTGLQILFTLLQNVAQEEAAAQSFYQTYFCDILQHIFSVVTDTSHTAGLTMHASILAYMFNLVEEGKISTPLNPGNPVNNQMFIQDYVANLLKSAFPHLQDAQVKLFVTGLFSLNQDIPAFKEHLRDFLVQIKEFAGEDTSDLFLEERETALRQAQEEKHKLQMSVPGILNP
Protocol: Fluorescence anisotropy binding assays
To estimate CRM1 binding affinities for NES motifs we monitored binding with a fluorescence-polarization assay based on previously described approaches. The increase in fluorescence anisotropy of TFP/YFP when the TFP/YFP-NES construct (50 nM) binds to 0–60 μM CRM1 (either CRM^HA or wild type) was recorded at 25°C with a 8100 SLM-Aminco spectrofluorometer in buffer 20 mM Tris/HCl, pH 7.4, 50 mM NaCl, 5 mM DTT, 2 mM MgCl2. Excitation and emission wavelengths were 463, 500 nm for TFP and 463, 533 nm for YFP, and slits width 4 and 8 nm, respectively.
Fig 4 Binding of CRM1 to TFP-NES constructs. (A) Scheme of the engineered TFP constructs, showing the sequence of the NES motifs. Φ residues are highlighted in red. (B) Titration of CRM1 onto the different TFP constructs (50 nM), at 25°C, in buffer 20 mM Tris/HCl, pH 7.4, 50 mM NaCl, 5 mM DTT, 2 mM MgCl2: Left panel: Binding of CRM1^HA (solid symbols) or wild type CRM1 (empty symbols) to TFP-PKI(NES). Right panel: Binding of CRM1^HA to TFP-mutE(NES) (triangles) and TFP-mutA(NES) (squares). Fraction bound was calculated from the relative increase in fluorescence anisotropy of TFP (λexc 463 nm, λem 500 nm). Error bars correspond to at least three measurements per CRM1 concentration.
We next used the TFP-(NES) constructs to monitor CRM1^HA binding to each motif, using the change in fluorescence anisotropy upon complex formation as a readout (Fig 4B), as previously described. […] The different nature of the fluorescent tag, and/or the linker between the fluorescent protein and the NES (2 residues longer in the YFP-PKI construct) could explain the discrepancy. […] To isolate the CRM1 / NES interaction under study from the influence of the tag protein, we have also conducted binding assays with peptides corresponding to the NES motifs (see below).

CRM1^HA [2] = biological target: T1, CRM1^HA; assay: Isothermal titration calorimetry, CRM1^HA / NES; type: binding; settings: ITC, 20°C; for Kd: read-out: KD
Protocol: Isothermal titration calorimetry (ITC)
ITC measurements were carried out using a VIP-ITC MicroCalorimeter (MicroCal, Inc., Northampton, MA). TFP and YFP constructs, as well as CRM1^HA, were dialyzed in a buffer containing 20 mM HEPES, pH 7.4, 50 mM NaCl, 1 mM TCEP, 1 mM MgCl2, and degassed prior to the experiment. Untagged peptides (AS: QDLCLAVEEVSLRK, AL: EAIQDLCLAVEEVSLRK, ES: QDLWQSLAQVSLRK and EL: EAIQDLWQSLAQVSLRK), N-acetylated and 95% pure, were purchased from Proteogenix (Schiltigheim, France) and resuspended in the ITC buffer. Measurements were performed at 20°C. TFP-NES, YFP-NES or NES peptides at 35–180 μM were titrated onto CRM1^HA at 2–14 μM. Injections of 6 μL were performed at 320 seconds interval (the first injection always was of 1 μL and is not considered in data analysis). To determine the thermodynamic parameters of NPM / importin interaction, importin α, importin Δα or importin α/β at 45–60 μM were titrated onto NPM (1–1.2 μM pentamer) in 50 mM Tris/HCl, pH 7.5, 100 mM NaCl, 2 mM TCEP, and 10% glycerol. […] “Reverse” titrations, where 20–30 μM NPM was titrated onto 7–10 μM of the different importins were also performed and yielded similar results.
The reaction heat of each injection is related to the calorimetric enthalpy of binding, ΔH^0. The binding isotherms, ΔH^0 vs. molar ratio, were analyzed with an independent binding sites model using MicroCal Origin software. The fit of the binding curve yields the binding constant KA (KD = 1/KA) and the enthalpy ΔH^0 of the binding reaction. The Gibbs free energy of binding ΔG^0 and the entropy ΔS^0 are determined from the basic thermodynamic expressions: ΔG^0 = -RTlnKA = ΔH^0−TΔS^0, where R and T are the gas constant and the absolute temperature, respectively.
Fig 5 Analysis of CRM1^HA/TFP-NES interaction by ITC. Isothermal titration of CRM1^HA with TFP-mutE(NES). […] The titration of negative control TFP-Cter (180 μM) onto CRM1^HA (14 μM) (circles) is also shown for comparison.

CRM1^HA [3] = biological target: T1, CRM1^HA; assay: Ni-NTA chromatography of TFP-NES / CRM1^HA complex formation; type: binding; settings: 2.5 mg His-tagged TFP construct on 1 mL Histrap FF, 1 mL CRM1^HA 18 μM; 50 mM Tris/HCl pH 8.0, 500 mM NaCl; SDS-PAGE
Text: Although the relative potency of the NESs acquired by the different NPM mutants has been compared using an in vivo export assay, their CRM1-binding affinities have not yet been determined. We cloned the NESs of mutant A and E as C-terminal fusions to a teal fluorescent protein (TFP) (Fig 4A). As a reference, we generated an equivalent construct with the well-characterized NES of protein kinase inhibitor (PKI). We first tested the binding of CRM1^HA to the TFP-NES constructs using Ni-NTA chromatography. His-tagged TFP constructs were bound to the Ni-NTA column, and an excess of untagged CRM1^HA was then injected (S4 Fig).
Supplementary file pone.0130610.s004.tif: S4 Fig TFP-NES / CRM1^HA complex formation shown by Ni-NTA chromatography. 2.5 mg of the His-tagged TFP construct were loaded on a 1 mL Histrap FF (GE Healthcare) in buffer 50 mM Tris/HCl, pH 8.0, 500 mM NaCl, 1 mM TCEP, 2 mM MgCl2, 5% glycerol, containing 15 mM imidazole. After washing with the same buffer, 1 mL of CRM1^HA at 18 μM was injected at 0.1 mL/min flow rate. Unbound CRM1^HA was collected, and then bound proteins were eluted with 2 M imidazole. SDS-PAGE of elution fractions: Unbound (free) CRM1^HA and the fraction eluted with imidazole, containing both the His-tagged TFP construct along with bound CRM1^HA. (TIF) Click here for additional data file.

CRM1^HA [4] = biological target: T1, CRM1^HA; assay: Size exclusion chromatography of NPM / CRM1^HA complex formation; type: binding
Protocol: Chromatography-based binding experiments
[…] Then 100 μL were loaded onto a Superdex 200 10/30 column (GE Healthcare), equilibrated in buffer 20 mM Tris/HCl, pH 7.4, 100 mM NaCl, 5 mM DTT, 2 mM MgCl2. Runs were performed at 15°C and a flow rate of 0.2 mL / min. The eluted fractions were analyzed by SDS-PAGE. TFP-NES/CRM1^HA complex formation was also tested by Ni-NTA chromatography (see Supporting Information).
Fig 3 Native-like properties of CRM1^HA “high affinity” mutant and formation of complexes between this CRM1 variant and AML-related NPM mutants. (A) Circular dichroism thermal denaturation profiles of wild type CRM1 and CRM1^HA, followed by ellipticity at 222 nm as a function of temperature. […] When evaluating the relative amounts of the complex and free NPM, one should take into account that absorbance at 280 nm is lower for the mutants (especially NPMmutA) than for wild type NPM, since wild type NPM contains two Trp residues per subunit, NPMmutE one, and NPMmutA none. […] They are detected in the fractions containing the complex probably due to formation of mixed oligomers with the full length species and/or incomplete resolution from free NPM. […]

HeLa cells = assay: In vivo nuclear export assay, Rev(1.4)-GFP; type: cell-based; settings: Rev(1.4)-NPMcNES-GFP in HeLa cells, actinomycin D, >200 cells per sample
Text: The clone of Myc3 tagged human NPM in pCDNA3.1 for eukaryotic expression was kindly provided by Dr. Yanping Zhang (University of Texas). From this clone, we used PCR to generate the AML-associated mutants A and E [27], by incorporating the mutations in the 3´oligonucleotide. The three NPM variants (wild type, A and E) were subcloned as YFP-NPM fusions into pEYFP-C1. The plasmid encoding YFP-CRM1 has been previously described, and pEYFP-C1 was used as its corresponding negative control. As a positive control in cell localization assays, a previously described plasmid encoding Flag-tagged Survivin fused to a heterologous NLS (“SurvNLS”) was used. To test the export activity of a novel putative NES in the C-terminal domain of wild type NPM, a DNA fragment encoding residues 264–282 was cloned into the plasmid Rev (1.4)-GFP (a gift of Dr. Beric Henderson, University of Sydney), as previously described.
The export activity of a novel putative NES in the C-terminal domain of NPM was tested using an established in vivo nuclear export assay in HeLa cells (see Supporting Information for further experimental details).
Supplementary file pone.0130610.s001.tif: S1 Fig A novel candidate NES (cNES) in NPM is not active in a nuclear export assay. […] Fluorescence microscopy images in panel B show the localization of the different proteins. […] More than 200 cells were counted per sample. […]

Kd (CRM1^HA [1]; TFP-NES 50 nM, pH 7.4, rounded, read-out: apparent KD): 5 µM
Kd (CRM1^HA [1]; TFP/YFP-NES construct 50 nM, 20 mM Tris/HCl pH 7.4, 50 mM NaCl, 5 mM DTT, 2 mM MgCl2, at least three measurements per CRM1 concentration, read-out: apparent KD (C50)): 4.97 ± 1.18 µM
Kd (CRM1^HA [2]; NES ligand (35–180 μM) titrated onto CRM1^HA (2–14 μM), 20 mM HEPES pH 7.4, 50 mM NaCl, 1 mM TCEP, 1 mM MgCl2, independent binding sites model): 2.38 ± 0.698 µM
ΔH (CRM1^HA [2]; NES ligand titrated onto CRM1^HA, 20 mM HEPES pH 7.4): -14.5 ± 6.2 kcal/mol
-TΔS (CRM1^HA [2]; NES ligand titrated onto CRM1^HA, 20 mM HEPES pH 7.4, from ΔG = ΔH − TΔS): 6.9 ± 6.1 kcal/mol
n (binding stoichiometry) (CRM1^HA [2]; NES ligand titrated onto CRM1^HA, 20 mM HEPES pH 7.4, low n of peptides might result from limited solubility): 0.54 ± 0.27
ΔG (CRM1^HA [2]; NES ligand titrated onto CRM1^HA, 20 mM HEPES pH 7.4, ΔG = -RTlnKA): -7.6 ± 0.1 kcal/mol
Kd (CRM1^HA [2]; TFP-NES titrated onto CRM1^HA, 20 mM HEPES pH 7.4, rounded): 2.4 µM
CRM1^HA binding in Ni-NTA chromatography (CRM1^HA [3]): not even detected in these conditions
Substance: DLCLAVEEVSLRK [TFP-mutA(NES), NES of NPM mutant A as C-terminal fusion to teal fluorescent protein]

complex formation with CRM1^HA (CRM1^HA [4]; SEC, 40 μM NPM + 140 μM CRM1^HA (data not shown)): failed to produce any detectable complex
Substance: wild type NPM: nucleophosmin, pentameric nucleolar protein
complex formation with CRM1^HA (CRM1^HA [4]; SEC Superdex 200, 20 μM (pentamer) NPM + 40 μM CRM1^HA, 30 min room temperature, run at 15°C, 20 mM Tris/HCl pH 7.4, 100 mM NaCl, mutant preparations partly C-terminally degraded): did not result in any complex stable enough as to be detected by SEC

Substance: VEAKFINYVKNCFRMTDQE [NPM cNES, candidate NES in C-terminal domain of NPM, tested as Rev(1.4)-GFP fusion]
nuclear export activity (HeLa cells): not functional as a nuclear export signal
nuclear export activity (HeLa cells; listed as 268-FINYVKNCFRM-278): inactive
